According to patent US8242168B2, “Use of phthalide derivatives for the treatment of type 2 diabetes mellitus” (DSM IP Assets B.V., priority 2003, dated 2012):
“And” between values parts separate entries of the source, which are not always exact repeats. Identical values can stand only once.

Legend:
[1] = system: C3H10T1/2 cells; test: Glucose uptake of adipocytes (radioactive 2-deoxyglucose); format: cell-based; conditions: for Basal glucose uptake / Basal glucose uptake (result in words): 48-h treatment; for Basal glucose uptake: absence of insulin, ± SEM; for Basal glucose uptake (result in words): different concentrations
Procedure: C3H10T1/2 cells (ATCC CCL-226) were grown for 5 days to confluence in DMEM supplemented with 10% FBS medium and induced with a mixture of insulin, dexamethasone and 3-isobutyl-1-methylxanthine to differentiate into adipocytes. Nine days after the beginning of induction, cells were treated for 48-h with ligustilide at different concentrations as shown in Table 2. Glucose uptake was determined using radioactive 2-deoxyglucose (10 μM 2-DG in HBS+0.5 μCi/ml of 3[H]-2-DG), measuring glucose uptake in the absence of insulin. Basal glucose uptake was increased by 48-h treatment with ligustilide in a dose-dependent manner (Table 2). This increase in glucose uptake was specific, since the increase was not observed in the presence of phloretin, a known inhibitor of specific glucose uptake.
Growing, induction and treatment of C3H10T1/2 cells were exactly as described in Example 1, with die exception that 3-butylphthalide at different concentrations was used instead of ligustilide.
Growing, induction and treatment of C3H10T1/2 cells were exactly as described in Example 1, with the exception that 3-butylidenphthalide at different concentrations was used instead of ligustilide.

[2] = system: C3H10T1/2 cells; test: Differentiation of adipocytes (oil Red O staining); format: cell-based; conditions: for Differentiation of the cells into adipocytes versus insulin alone (result in words): co-treatment with insulin, 10 days; for Mean OD ± SEM (oil Red O, 540 nm): 10-day treatment
Procedure: After the 10-day treatment, the cells were stained with oil Red O as follows: cells were washed 2× in PBS and fixed in 10% formalin at room temperature for 1 h. After removal of formalin, 200 μl of oil Red O staining solution (3:2 mixture of 0.5% w/v oil Red O stock solution and water) was applied to each well. The cells were incubated for 20 min at room temperature, washed twice in 2×PBS and incubated for 10 min with 300 μl of isopropanol/well for oil Red O extraction. Quantification of oil Red O was determined by measuring absorbance at 540 nm (mean OD).
The measurement of adipocyte differentiation using the oil Red O assay was performed as described in Example 4.

[3] = system: C57BLKS/J db/db mice; test: Blood glucose and oral glucose tolerance test in db/db mice; format: in vivo
Procedure: The efficacy of ligustilide on glucose tolerance was tested in a 7-day study in C57BLKS/J db/db mice (n=10/group), a model of late type 2 diabetes mellitus with severe hyperglycemia which is widely used to determine the efficacy of PPARγ ligands.
Male db/db mice were obtained from Jackson Laboratory (Bar Harbor, Me., USA). Adult mice aged 12 weeks were used in the experiment. Mice were housed individually in plastic cages with bedding and allowed free access to standard rodent food and tap water. The animal rooms were controlled for temperature (24° C.), humidity (55%), and light (12-h light-dark cycle). The animals were randomized in two groups and ligustilide was administered orally to one of the groups for 7 days at a dose of 200 mg/kg BW/day. After 7 days of treatment the concentration of glucose was determined in blood from fed animals, i.e., animals which were not restricted from food. After a period of 5 days of treatment an oral glucose tolerance test (OGTT) was performed. For the OGTT mice were fasted overnight and then a 1-g glucose/kg BW solution was orally administered. […] Blood glucose was measured by a glucose analyzer (Glucotrend Premium, Roche Diagnostics, Rotkreuz, Switzerland).

[4] = insulin 1 × 10^−7 M + compound 1 × 10^−5 M
[5] = insulin 1 × 10^−7 M + compound 1 × 10^−4 M

| Compound | Basal glucose uptake ([1]; 1 × 10^−4 M) | Basal glucose uptake ([1]; 1 × 10^−5 M) | Basal glucose uptake ([1]; 1 × 10^−6 M) | Basal glucose uptake (result in words) [1] | Differentiation of the cells into adipocytes versus insulin alone (result in words) [2] | Mean OD ± SEM (oil Red O, 540 nm) [2, 4] | Mean OD ± SEM (oil Red O, 540 nm) [2, 5] | Basal glucose uptake ([1]; 5 × 10^−5 M) | also measured |
| --- | --- | --- | --- | --- | --- | --- | --- | --- | --- |
| CCCC[C@@H]1OC(=O)c2ccccc21 (stereo in doubt) [3-Butylphthalide] | 136.7 ± 8.5 % of control | 97.5 ± 8.5 % of control | 99.3 ± 8.5 % of control | increase | higher differentiation | 0.21 ± 0.01 |  |  |  |
| CCC/C=C1\OC(=O)c2ccccc21 [3-Butylidenephthalide] | 137.3 ± 8.5 % of control | 123.8 ± 8.5 % of control | 107.0 ± 8.5 % of control | increase | higher differentiation | 0.15 ± 0.01 | 0.28 ± 0.01 |  | Mean OD ± SEM (oil Red O, 540 nm) ([2]; insulin 1 × 10^−7 M + compound 5 × 10^−5 M): 0.22 ± 0.01 |
| CC1(COc2ccc(CC3SC(=O)NC3=O)cc2)CCCCC1 (centres unmarked) [Ciglitazone, reference compound] |  |  |  |  |  |  |  | 381.5 ± 24.4 % of control |  |
| CCC/C=C1\OC(=O)C2=C1CCC=C2 [Ligustilide] | 175.0 ± 24.4 % of control |  |  | increased | higher differentiation |  |  | 131.8 ± 24.4 % of control | Glucose AUC of an OGTT (result in words) ([3]; 1 g glucose/kg body weight, day 5): significantly reduced; Blood glucose levels during the OGTT versus control (result in words) ([3]; OGTT on day 5, 15-180 min): lower at all time points; Glucose levels of fasted animals versus untreated control (result in words) ([3]; after 5 days of treatment, overnight fasting): significantly decreased; Glucose levels of fed animals (result in words) ([3]; after 7 days of treatment, 200 mg/kg BW/day): significantly lowered; Blood Glucose Fasted ([3]; db/db mice, 200 mg/kg BW/day orally, after 5 days, overnight fasting): 196 mg/dL; Blood Glucose Fed ([3]; db/db mice, 200 mg/kg BW/day orally, after 7 days, fed animals): 388 mg/dL; Glucose AUC (OGTT) ([3]; db/db mice, 200 mg/kg BW/day orally, day 5, OGTT 1 g glucose/kg BW, 0-180 min): 51039; Basal glucose uptake ([1]; 2 × 10^−4 M): 294.4 ± 24.4 % of control; Basal glucose uptake ([1]; 5 × 10^−6 M): 105.9 ± 24.4 % of control; Increase in glucose uptake in the presence of phloretin ([1]; phloretin, inhibitor of specific glucose uptake): not observed; Mean OD ± SEM (oil Red O, 540 nm) ([2]; insulin 2 × 10^−7 M + compound 5 × 10^−6 M): 1.71 ± 0.34 |
| CCCC[C@@H]1OC(=O)C2=CCCCC21 (some centres unmarked) [Sedanolide] |  |  |  |  | higher differentiation | 0.15 ± 0.01 | 0.18 ± 0.01 |  |  |
| Insulin [reference compound] |  |  |  |  |  |  |  |  | Mean OD ± SEM (oil Red O, 540 nm) ([2]; insulin 1 × 10^−7 M alone): 0.14 ± 0.01 and 0.16 ± 0.01; Mean OD ± SEM (oil Red O, 540 nm) ([2]; insulin 2 × 10^−7 M alone (negative control)): 0.687 ± 0.34 |
